The values that follow come from US11524966B1 (Valo Early Discovery, Inc., priority 2017, dated 2022).

pIC50: −log10 of the molar value. Where only a bound is given, the exact number is not on record here.

The test has as its target T1, USP28 (His-tagged USP28-FL-mammalian) (Homo sapiens, UniProt Q96RU2).
T1 construct: Expression of USP28 (1-1077)-TEV-6*His (pTT5 vector); made in house; host or cells: Expi293f cells (pTT5 vector)
T1 sequence (Q96RU2 1-1077): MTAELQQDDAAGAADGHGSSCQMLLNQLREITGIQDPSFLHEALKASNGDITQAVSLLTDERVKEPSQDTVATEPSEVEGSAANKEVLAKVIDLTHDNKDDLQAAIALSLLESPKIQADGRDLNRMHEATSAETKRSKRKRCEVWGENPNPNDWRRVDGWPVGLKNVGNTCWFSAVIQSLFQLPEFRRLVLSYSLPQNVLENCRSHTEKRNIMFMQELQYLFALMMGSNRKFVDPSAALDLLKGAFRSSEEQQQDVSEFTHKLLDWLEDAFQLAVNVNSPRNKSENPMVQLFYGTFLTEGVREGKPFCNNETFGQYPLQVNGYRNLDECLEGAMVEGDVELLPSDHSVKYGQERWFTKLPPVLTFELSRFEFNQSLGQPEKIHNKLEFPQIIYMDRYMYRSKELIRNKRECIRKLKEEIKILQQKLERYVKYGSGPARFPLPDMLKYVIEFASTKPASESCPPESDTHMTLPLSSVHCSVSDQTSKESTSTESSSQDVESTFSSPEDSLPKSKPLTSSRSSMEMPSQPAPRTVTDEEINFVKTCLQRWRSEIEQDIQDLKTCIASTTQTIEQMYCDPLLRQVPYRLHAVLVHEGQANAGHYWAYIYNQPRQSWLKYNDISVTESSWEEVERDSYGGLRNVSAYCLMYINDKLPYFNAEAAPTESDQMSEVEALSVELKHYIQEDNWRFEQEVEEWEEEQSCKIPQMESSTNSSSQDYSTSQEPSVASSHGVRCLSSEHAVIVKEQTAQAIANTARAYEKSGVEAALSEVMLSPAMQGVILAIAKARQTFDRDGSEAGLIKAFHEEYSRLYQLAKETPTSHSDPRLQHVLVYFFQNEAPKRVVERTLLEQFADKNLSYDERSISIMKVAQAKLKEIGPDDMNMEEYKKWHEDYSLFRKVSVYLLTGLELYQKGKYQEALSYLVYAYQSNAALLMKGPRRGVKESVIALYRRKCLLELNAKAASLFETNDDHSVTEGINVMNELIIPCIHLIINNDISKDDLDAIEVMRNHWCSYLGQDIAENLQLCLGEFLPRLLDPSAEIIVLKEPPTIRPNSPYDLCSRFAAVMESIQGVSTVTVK
Description: Ubiquitin-Rhodamine 110 Assay for USP28 Activity, Example A-1(a). As to conditions: Ubiquitin-Rhodamine 110 assay, Example A-1(a); read-out: USP28 A-1(a) IC50 range. It is filed as biochemical. In a few lines: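 Full-length His-tagged USP28 (1-1077, Expi293F-expressed; […]) was preincubated 30 min with compound (25 μM–1.3 nM, 10-point 3-fold) in 20 mM Tris-HCl pH 8.0, 3 mM BME, 0.03% BGG, 0.01% Triton X-100. Ub-Rh110 (25 nM) was then added for 45 min at room temperature, stopped with citric acid, and read by fluorescence (485/535 nm).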
By pIC50 is commonly meant the IC50 on a negative log10 scale, so that one unit is a factor of ten. On to `COC[C@H]1CN(c2nc3c(cc2F)C[C@H](NC(=O)c2sc4nc(C)ccc4c2N)CC3)C[C@H]1N` (single isomer, unassigned) [Example 303], for which the negative-log IC50 (pIC50) was 5.70 to 6.70.

As for `Cc1ccc2c(N)c(C(=O)N[C@H]3CCc4nc(N5C[C@@H]6NCCC(F)(F)[C@@H]6C5)ccc4C3)sc2n1` [Example 330, N-[(6S)-2-[(4aR,7aR)-4,4-difluoro-octahydro-1H-pyrrolo[3,4-b]pyridin-6-yl]-5,6,7,8-tetrahydroquinolin-6-yl]-3-amino-6-methylthieno[2,3-b]pyridine-2-carboxamide], the negative logarithm of the IC50 (pIC50) was 6.70 to 7.30.

Take `COC[C@@H]1CN(c2nc3c(cc2F)C[C@H](NC(=O)c2sc4nc(C)ccc4c2N)CC3)C[C@@H]1N` (single isomer, unassigned) [Example 302]: the pIC50 was 6.70 to 7.30.

On to `CO[C@@]1(C)CN(c2ccc3c(n2)OC[C@H](NC(=O)c2sc4nc(C)ccc4c2N)C3)C[C@@H]1N` [Example 325, 3-amino-N-[(3R)-7-[(3S,4S)-4-amino-3-methoxy-3-methylpyrrolidin-1-yl]-2H,3H,4H-pyrano[2,3-b]pyridin-3-yl]-6-methylthieno[2,3-b]pyridine-2-carboxamide], for which the negative-log IC50 (pIC50) was 6.70 to 7.30.

For `COC[C@H]1CN(c2nc3c(cc2F)C[C@@H](NC(=O)c2sc4nc(C)ccc4c2N)CC3)C[C@H]1N` [Example 301, 3-amino-N-[(6S)-2-[(3S,4S)-3-amino-4-(methoxymethyl)pyrrolidin-1-yl]-3-fluoro-5,6,7,8-tetrahydroquinolin-6-yl]-6-methylthieno[2,3-b]pyridine-2-carboxamide], the pIC50 was < 5.70.

For `CO[C@H]1CN(c2ccc3c(n2)OC[C@H](NC(=O)c2sc4nc(C)cc(C)c4c2N)C3)C[C@@H]1N` [Example 286, 3-amino-N-[(3R)-7-[(3S,4S)-3-amino-4-methoxypyrrolidin-1-yl]-2H,3H,4H-pyrano[2,3-b]pyridin-3-yl]-4,6-dimethylthieno[2,3-b]pyridine-2-carboxamide], the negative logarithm of the IC50 (pIC50) was 6.70 to 7.30.

As for `COC[C@]1(C)CN(c2ccc3c(n2)CC[C@H](NC(=O)c2sc4nc(C)ccc4c2N)C3)C[C@@H]1N` [Example 342, 3-amino-N-[(6S)-2-[(3R,4R)-4-amino-3-(methoxymethyl)-3-methylpyrrolidin-1-yl]-5,6,7,8-tetrahydroquinolin-6-yl]-6-methylthieno[2,3-b]pyridine-2-carboxamide], the pIC50 is 6.70 to 7.30.
